Laboratory results: US20080132539A1, “Hydroxamic Acid Derivative And Age Generation Inhibitor Containing The Derivative” (priority 2003, published 2008)

Tested on: Maillard reaction (lysozyme / fructose, dimer formation)
Experiment: Maillard reaction-inhibiting effects (lysozyme dimer formation with fructose, SDS-PAGE densitometry)
Format: biochemical
Conditions: 10 mg/mL lysozyme, 200 mM fructose, pH 7.4, 37° C., 4 days, dimer formation inhibition rate
Description: This Example examined Maillard reaction-inhibiting effects using, as test compounds, the compounds produced in the above-described Examples and the commercially available substances arginine hydroxamate (Compound No. 111), tyrosine hydroxamate (Compound No. 112), and tryptophan hydroxamate (Compound No. 113). More specifically, 10 mg/mL lysozyme, 200 mM fructose, and each of the above-described test compounds dissolved in a 0.4 mM sodium phosphate buffer (pH 7.4) so as to provide a concentrations of 0.1, 0.3, 1, or 3 mM were incubated at 37° C. for 4 days. After the incubation, the samples were subjected to SDS-PAGE, stained with Coomassie Brilliant Blue R-250, and quantitated for the formed dimmers using a densitometer. The Maillard reaction-inhibiting activity was defined as the dimmer formation inhibition rate of a test compound calculated on the basis that the amount of dimmer is 100% in the absence of the test compound, using, as blank, the amount of dimer in the absence of fructose and the test compound.

[1] = test compound concentration 0.1 mM
[2] = test compound concentration 0.3 mM
[3] = test compound concentration 1 mM
[4] = test compound concentration 3 mM

Structure (SMILES) | Maillard reaction-inhibiting activity (%) [1] [%] | Maillard reaction-inhibiting activity (%) [2] [%] | Maillard reaction-inhibiting activity (%) [3] [%] | Maillard reaction-inhibiting activity (%) [4] [%]
N[C@@H](CCCNC(=O)CC1CCCCC1)C(=O)NO [Compound No. 19, (S)-2-amino-5-(cyclohexylacetylamino)pentanoic acid hydroxyamide] | 10 | 54 | 95 | 101
CCCn1c(CC[C@H](NCC2CCCCC2)C(=O)NO)nc2ccccc21 [Compound No. 97, (S)-2-(cyclohexylmethyl-amino)-4-(1-propyl-1H-benzimidazol-2-yl)-N-hydroxybutyramide] | 96 | 98 | 98 | 98
Cc1cc2nc(CC[C@H](N)C(=O)NO)n(Cc3ccc(C(C)(C)C)cc3)c2cc1C [Compound No. 85, (S)-2-amino-4-[1-(4-t-butylbenzyl)-5,6-dimethyl-1H-benzimidazol-2-yl]-N-hydroxybutyramide] | 99 | 100 | 98 | 98
CCCN(CCC)CCC[C@H](N)C(=O)NO [Compound No. 25, (S)-2-amino-5-dipropylaminopentanoic acid hydroxyamide] | 7 | 6 | 40 | 100
Cc1ccc(C(=O)Nc2ccc(C[C@H](N)C(=O)NO)cc2)cc1 [Compound No. 30, (S)-2-amino-3-[4-(4-methylbenzoyl)amino-phenyl]-N-hydroxypropionamide] | 56 | 74 | 80 | 92
N[C@@H](CCc1nc2ccccc2n1C1CCCCC1)C(=O)NO [Compound No. 75, (S)-2-amino-N-hydroxy-4-(1-cyclohexyl-1H-benzimidazol-2-yl)butyramide] | 82 | 100 | 100 | 100
NC(Cc1cn(Cc2ccc(F)c(F)c2)c2ccccc12)C(=O)NO (racemic) [Compound No. 108, (RS)-2-amino-3-[1-(3,4-difluorobenzyl)-1H-indol-3-yl]-N-hydroxypropionamide] | 102 | 103 | 104 | 104
N[C@@H](Cc1ccc(OCc2ccc([N+](=O)[O-])cc2)cc1)C(=O)NO [Compound No. 101, (S)-2-amino-3-[4-(4-nitrobenzyloxy)phenyl]-N-hydroxypropionamide] | 102 | 102 | 102 | 98
CCCCCn1c(CC[C@H](N)C(=O)NO)nc2cc(Cl)c(Cl)cc21 [Compound No. 96, (S)-2-amino-4-(5,6-dichloro-1-pentyl-1H-benzimidazol-2-yl)-N-hydroxybutyramide] | 99 | 103 | 104 | 104
N[C@@H](CCC(=O)NCC(c1ccccc1)c1ccccc1)C(=O)NO [Compound No. 6, (S)-2-amino-4-(2,2-diphenylethylaminocarbonyl)-N-hydroxybutyramide] | 49 | 97 | 103 | 100
N[C@@H](Cc1ccc(OCc2ccc(F)cc2F)cc1)C(=O)NO [Compound No. 102, (S)-2-amino-3-[4-(2,4-difluorobenzyloxy)phenyl]-N-hydroxypropionamide] | 78 | 88 | 94 | 95
Cc1ccc(S(=O)(=O)Nc2ccc(C[C@H](N)C(=O)NO)cc2)cc1 [Compound No. 34, (S)-2-amino-3-[4-(toluen-4-ylsulfonylamino)phenyl]-N-hydroxypropionamide] | 37 | 98 | 102 | 102
COC(=O)Nc1ccc(C[C@H](N)C(=O)NO)cc1 [Compound No. 36, (S)-2-amino-3-(4-methoxycarbonylaminophenyl)-N-hydroxypropionamide] | 15 | 33 | 69 | 102
CN(C)NC(=O)c1ccc(C[C@H](N)C(=O)NO)cc1 [Compound No. 37, (S)-2-amino-3-(4-dimethylaminocarbamoyl-phenyl)-N-hydroxypropionamide] | 1 | 16 | 35 | 94
CCCCCn1cc(C[C@H](N)C(=O)NO)c2ccccc21 [Compound No. 109, (S)-2-amino-3-(1-pentyl-1H-indol-3-yl)-N-hydroxypropionamide] | 104 | 105 | 104 | 103
N[C@@H](CCc1nc2ccccc2n1Cc1ccc(F)cc1)C(=O)NO [Compound No. 73, (S)-2-amino-N-hydroxy-4-[1-(4-fluorobenzyl)-1H-benzimidazol-2-yl]butyramide] | 94 | 98 | 98 | 100
N[C@@H](Cc1ccc([N+](=O)[O-])cc1)C(=O)NO [Compound No. 40, (S)-2-amino-3-(4-nitrophenyl)-N-hydroxypropionamide] | 37 | 49 | 96 | 100
CC(C)(C)c1ccc(NC(=O)CC[C@H](N)C(=O)NO)cc1 [Compound No. 2, (S)-2-amino-4-(4-t-butylphenylaminocarbonyl)-N-hydroxybutyramide] | 86 | 100 | 100 | 100
CCCCCN(CCCCC)CCC[C@H](N)C(=O)NO [Compound No. 26, (S)-2-amino-5-dipentylaminopentanoic acid hydroxyamide] | 11 | 17 | 68 | 100
N#Cc1ccc(COc2ccc(C[C@H](N)C(=O)NO)cc2)cc1 [Compound No. 103, (S)-2-amino-3-[4-(4-cyanobenzyloxy)phenyl]-N-hydroxypropionamide] | 89 | 95 | 100 | 97
CC(C)(C)c1ccc(Cn2c(CC[C@H](N)C(=O)NO)nc3ccccc32)cc1 [Compound No. 74, (S)-2-amino-N-hydroxy-4-[1-(4-t-butylbenzyl)-1H-benzimidazol-2-yl]butyramide] | 98 | 99 | 101 | 100
N[C@@H](Cc1ccc(OCc2ccccc2-c2ccccc2)cc1)C(=O)NO [Compound No. 100, (S)-2-amino-3-[4-(2-phenylbenzyloxy)phenyl]-N-hydroxypropionamide] | 93 | 96 | 96 | 97
